Experimental data taken from patent US6770673B1, “Therapeutic uses of arglabin in combination with other chemotherapy agents” (priority 1997, dated 2004).
Marks after values point to notes of the source that are not given here.

Legend:
cancer = assay: Case records of selected patients, monochemotherapy; format: in vivo, human
Excerpt: The following are abstracts from the case records of selected patients, who received dimethylaminoarglabin hydrochloride monochemotherapy.

[1] = system: Sarcoma-45 resistant to 5-fluorouracil; assay: Inhibition of growth of resistant tumour strains; format: in vivo, rats; details: dose 50 mg/kg
X-653 cells [2] = assay: Proliferation of transformed cells, 3H-thymidine incorporation; format: cell-based, mouse; details: 3H-thymidine 18 hours, FIG. 6
Procedure: (§1) Mouse mastocytoma (P-815), myeloma (Z-P3x63Ag8.653 and Pai) and human erthyroleukemia (K-562) cell lines were used. Primary cultures of normal mouse hepatocytes were isolated from mouse liver using collagenase. Mouse splenocytes were isolated using a glass homogenizer. Marrow cells were obtained by washing the bone marrow. See, for example, Shears, S. B. and Kirk, C. J. (1984), Biochem. J. 219:375-382.
(§2) Cells were cultured in RPMI-1640 medium supplemented with 10% fetal calf serum, 100 mM L-glutamine and 50 μg/ml gentamycin at 37° C. under 5% CO2. Cells were seeded into 24-well plates at a density of 50,000 cells/well and grown until near confluency, approximately 2 days, then transferred to 96-well plates at the same density. […] Viability of the cells was determined by trypan blue exclusion. […] Approximately 25% of K-562 and X-653 cells survived at a concentration of 12 μg/ml, and the same proportion of P-815 cells survived at a concentration of about 25 μg/ml.
(§3) The proliferation of the transformed cells was assessed by incubating ^3H-labeled thymidine in the media for 18 hours. At the end of the specified time period, the proliferation was measured by counting the amount of ^3H-thymidine incorporated. Thymidine incorporation provides a quantitative measure of the rate of DNA synthesis, which is typically directly proportional to the rate of cell division.

P-815 cells [3] = assay: as above; format: cell-based, mouse; details: 3H-thymidine 18 hours, FIG. 6
Procedure: as §1, §2, §3

immune system [4] = assay: Immunologic status of patients of the first clinical trial, rozette-formation and phagocytosis; format: in vivo, human
Procedure: Immunologic status of the patients was evaluated using standard methods of rozette-formation and phagocytosis. These indices were studied prior to treatment, during treatment and after treatment. Blood samples were taken from a finger. […] A general change in the ratio of T-helper lymphocytes to T-suppressor lymphocytes was due to an increase of T-suppressor lymphocytes. […] Total number of leukocytes increased up to 9.4×10^9/L and the total number of lymphocytes increased as well. The levels of all types of immunoglobulins increased.
By day 20 of treatment, all indices returned to normal. In some patients, indices returned to normal by day 14. In patients that were analyzed 30 days after treatment, a significant increase in the number of T-lymphocytes and adhesiveness of neutrophils was observed.

[5] = system: end-stage (III-IV) cancer; assay: First clinical trial, 51 patients
Procedure: The patient population was 67.9% male and 32.1% female. […] Intrapleural administration was used for patients with pleurisy. Patients were given a very small dose and monitored for any signs of allergic reaction before proceeding. […] After 30-35 days, the dose was increased to 480 mg per day. […] It was estimated that the daily dose should be about 240-280 mg for typical cases. […] Additional courses of treatment were administered to some patients. Patient condition before treatment was rated on a scale of 1 to 3, where 1 was bedridden, 2 was a significant restriction on activity and 3 retained full activity. Therapeutic result was measured on a scale from 0 to 3, where 0 was no improvement, 1 was insignificant or improvement for less than a month, 2 was considerable improvement (25-50% reduction in tumor size) and 3 was sharp improvement (50-100% reduction in tumor size).

X-653 cells [6] = assay: Viability of transformed cells, trypan blue exclusion; format: cell-based, mouse; details: 12 μg/ml, 18 hours
Procedure: as §1, §2

P-815 cells [7] = assay: as above; format: cell-based, mouse; details: about 25 μg/ml, 18 hours
Procedure: as §1, §2

immune system [8] = assay: Immunological indices in August rats with Pliss lymphosarcoma; format: in vivo; details: Increased; about 50 mg/kg IP daily for 10 days
Excerpt: Additional immunological data were obtained from an “August” line of rats, weighing 140-160 g, with and without Pliss lymphosarcoma. […] Results are summarized in Table V. Overall, lyophilized-dimethylaminoarglabin hydrochloride stimulated delayed type hypersensitivity, but reduced all other studied indices in intact rats. In rats with Pliss Lymphosarcoma, the immune system was stimulated, as all studied indices increased.

hepatocytes = assay: Viability of primary cultures of normal cells, trypan blue exclusion; format: cell-based, mouse; details: 18 hours
Procedure: as §1, §2
(§4) Viability was measured by trypan blue exclusion. […] At a concentration of 320 μg/ml, the number of viable splenocytes was reduced by 50% in comparison to the control. At concentrations of 640 μg/ml and 1280 μg/ml, 40% and 10%, respectively, of the splenocytes were still viable. At these same concentrations, approximately 50% and 25% of hepatocytes were still viable. Marrow cells were more sensitive to dimethylaminoarglabin hydrochloride. At a concentration of 160 μg/ml, only about 50% of the marrow cells were still viable. Increasing the concentration to 320 μg/ml reduced the viability to about 25%.

marrow cells = assay: as above; format: cell-based, mouse; details: 18 hours
Procedure: as §1, §2, §4

splenocytes = assay: as above; format: cell-based, mouse; details: 18 hours
Procedure: as §1, §2, §4

K-562 cells = assay: Viability of transformed cells, trypan blue exclusion; format: cell-based, human; details: 12 μg/ml, 18 hours
Procedure: as §1, §2

[9] = Toxicity and maximum tolerable doses of arglabin and derivatives; format: in vivo, rats, guinea pigs, mice, rabbits; details: 2% aqueous solution, blood serum and hepatic tissue
Excerpt: Overall, the compounds in this family have low toxicity and are tolerated at dosages exceeding the therapeutic dosage.
Blood pressure was maintained.

Sarcoma-37 = assay: Inhibition of tumor growth in implanted tumors; format: in vivo, mice and rats; details: dose 30 mg/kg

**Q.** What does the source list for `CC1=CCC23OC2(C)CCC2C(CN(C)C)C(=O)OC2C13.Cl` (stereo not drawn) [Dimethylaminoarglabin hydrochloride]?
**A.** condition of patient with brain tumor (cancer; Patient A, case number 543, after the first course): condition was stabilized; infiltration of the right breast decreased (cancer; Patient M, case number 305, breast cancer, 5 courses): 50%; outcome of liver cancer (cancer; patient, case number N2225, embryonal carcinoma of the liver, 120 mg IV daily): complete recovery; Inhibition of Tumour Strains Growth, % - Resistant Forms - Sarcoma-45 to 5-fluorouracil [1]: 62.3%; concentration at which proliferation was effectively blocked (X-653 cells [2]): 6 µg/mL; concentration at which proliferation was effectively blocked (P-815 cells [3]): 12 µg/mL; neutrophil adhesiveness (immune system [4]; days 3-5 of treatment, decreased from 42%): 28.5%; undifferentiated lymphocytes (immune system [4]; days 3-5 of treatment, increased from 21.5%): 42.2%; number of T-helper lymphocytes (immune system [4]; days 3-5 of treatment, reduced from 50%): 37.3%; number of T-lymphocytes (immune system [4]; days 3-5 of treatment, reduced from 57%): 40.1%; total number of leukocytes increased up to (immune system [4]; during treatment): up to 9.4 ×10^9/L; average time of retention (rat, in vivo): about 67 hours; brain tissue concentration (rat, in vivo): 23.9 µg/g; concentration in the liver (rat, in vivo): 228.6 µg/g; maximum lung concentration (rat, in vivo): 149.4 µg/g; maximum spleen concentration (rat, in vivo): 159 µg/g; penetration through the blood-brain barrier (rat, in vivo): able to penetrate through the blood-brain barrier; total clearance (rat, in vivo): 0.5 mL/min; maximal level in the blood serum (rat, in vivo, iv, 2 mg/kg): 30 µg/mL; time of maximal level in the blood serum (rat, in vivo, iv, 2 mg/kg): within one hour; volume of distribution (rat, in vivo, iv, 2 mg/kg): large; kidney concentration (rats, 24 hours): 56.6 µg/g; concentration in skeletal muscle (rats, within three hours after administration): 176.4 µg/g; complaints at high dose ([5]; 480 mg per day): nausea and vomiting; patients with a considerable improvement ([5]; liver cancer): 55.6%; patients with a considerable improvement ([5]; lung cancer): about 64%; patients with a considerable improvement ([5]; ovarian cancer): 66%; patients with a considerable improvement ([5]; overall): approximately 30%; Note(s) - decrease in tumor ([5]; patient 47, rectal cancer III stage, suppositories): 50% decrease; hematopoiesis ([5]; patients): did not suppress hematopoiesis; toxicity ([5]; patients): little toxicity; taste reported immediately after administration ([5]; quickly dissipated): bitter taste; cells survived (X-653 cells [6]): Approximately 25%; cells survived (P-815 cells [7]): Approximately 25%; Delayed type hypersensitivity, Rats with Pliss Lymphosarcoma After Treatment (immune system [8]): 89.9-132.2%; Hemagglutination (RHG), Rats with Pliss Lymphosarcoma After Treatment (immune system [8]): 82.2-142.6%; Nitroblue tetrazolium (NBT), Rats with Pliss Lymphosarcoma After Treatment (immune system [8]): 79.2-175.4%; Spontaneous-erythrocyte rosette forming (E-ROK), Rats with Pliss Lymphosarcoma After Treatment (immune system [8]): 94.8-162.5%; hepatocytes still viable (hepatocytes; 640 μg/ml): approximately 50%; hepatocytes still viable (hepatocytes; 1280 μg/ml): about 25%; marrow cells still viable (marrow cells; 160 μg/ml): approximately 50%; marrow cells viability (marrow cells; 320 μg/ml): about 25%; number of viable splenocytes reduced in comparison to the control (splenocytes; 320 μg/ml): 50%; splenocytes still viable (splenocytes; 640 μg/ml): 40%; splenocytes still viable (splenocytes; 1280 μg/ml): 10%; cells survived (K-562 cells): Approximately 25%; findings after prolonged daily intraperitoneal administration [9]: Reversible changes in glycolysis and tissue respiration; Inhibition of Tumour Growth, % - Sarcoma-37 (Sarcoma-37): 78.2* %
